Reference: patent publication US6342509B1, “Piperidine quaternary salts- CCR- 3 receptor antagonists” (Syntex (U.S.A.) LLC, priority 1998, dated 2002)

Columns and labels:
[1] = biological target: T1, CCR-3 receptor (Homo sapiens, UniProt P51677); assay: CCR-3 Receptor Binding Assay in vitro (inhibition of 125I eotaxin binding to CCR-3 L1.2 transfectant cells); conditions: CCR-3 L1.2 transfected cells, 1 h at room temperature, read-out: IC50 (concentration of test compound required to reduce 125I-eotaxin binding to the CCR-3 L1.2 transfected cells by 50%)
T1 construct: host or cells: L1.2 (murine pre-B lymphoma line) CCR-3 transfectant cells
T1 sequence (P51677 1-355): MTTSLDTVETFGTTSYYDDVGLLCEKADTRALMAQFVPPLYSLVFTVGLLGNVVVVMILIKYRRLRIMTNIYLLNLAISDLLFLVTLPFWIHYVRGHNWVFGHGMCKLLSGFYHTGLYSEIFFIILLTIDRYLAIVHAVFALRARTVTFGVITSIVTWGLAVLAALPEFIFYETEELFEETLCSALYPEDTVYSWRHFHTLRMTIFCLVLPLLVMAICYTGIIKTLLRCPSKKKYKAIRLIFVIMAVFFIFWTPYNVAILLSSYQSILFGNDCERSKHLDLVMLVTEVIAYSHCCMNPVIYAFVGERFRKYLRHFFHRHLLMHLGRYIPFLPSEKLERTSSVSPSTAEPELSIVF
Description: The CCR-3 antagonistic activity of the compounds of the invention was determined by their ability to inhibit the binding of ^125I eotaxin to CCR-3 L1.2 transfectant cells obtained from leukoSite (Cambridge, Mass.).
The assay was performed in Costar 96-well polypropylene round bottom plates. Test compounds were dissolved in DMSO and then diluted with binding buffer (50 mM HEPES, 1 mM CaCl2, 5 mM MgCl2, 0.5% bovine serum albumin, 0.02% sodium azide, pH 7.24) such that the final DMSO concentration was 2%. 25 μl of the test solution or only buffer with DMSO (control samples) was added to each well, followed by the addition of 25 μl of ^125I-eotaxin ([…]) (NEX314, New England Nuclear, Boston, Mass.) and […] of the CCR-3 L1.2 transfected cells in 25 μl binding buffer. The final reaction volume was 75 μl.
After incubating the reaction mixture for 1 h at room temperature, the reaction was terminated by filtering the reaction mixture through polyethylenimine treated Packard Unifilter GF/C filter plate (Packard, Chicago, Ill.). The filters were washed four times with ice cold wash buffer containing 10 mm HEPES and 0.5M sodium chloride (pH 7.2) and dried at 65° C. for approximately 10 min. 25 μl/well of Microscint-20™ scintillation fluid (Packard) was added and the radioactivity retained on the filters was determined by using the Packard TopCount™.
The IC50 value (concentration of test compound required to reduce ^125I-eotaxin binding to the CCR-3 L 1.2 transfected cells by 50%) for representative compounds of the invention was: […]

Structure (SMILES)	melting point [°C]	IC50 [1] [nM]
COc1cc(NC(=O)NC(C[N+]2(C)CCC(Cc3ccc(Cl)c(Cl)c3)CC2)C(C)C)cc(OC)c1OC.[Cl-] (centres unmarked)	123.7 to 138	
CC[N+]1(C[C@H](NC(=O)Nc2cc(OC)c(OC)c(OC)c2)C(C)C)CCC(Cc2ccc(Cl)c(Cl)c2)CC1 (some centres unmarked) [Cpd 1, 4-(3,4-Dichlorobenzyl)-1-ethyl-1-{3-methyl-2-[3-(3,4,5-trimethoxyphenyl)-ureido]butyl]piperidinium iodide]		210
CCc1ccccc1NC(=O)N[C@@H](C[N+]1(CC)CCC(Cc2ccc(Cl)c(Cl)c2)CC1)C(C)(C)C (some centres unmarked) [Cpd 12]		198
COc1cc(NC(=O)NC(C[N+]2(C)CCC(Cc3ccc(Cl)c(Cl)c3)CC2)C(C)C)cc(OC)c1OC (centres unmarked) [Cpd 14, 4-(3,4-dichlorobenzyl)-1-methyl-1-{3-methyl-2-[3-(3,4,5-trimethoxyphenyl)ureido]butyl}piperidinium iodide]		2320
COc1cc(NC(=O)NCC[N+]2(C)CCC(Cc3ccc(Cl)c(Cl)c3)CC2)cc(OC)c1OC.[I-] (centres unmarked) [Cpd 19, 4-(3,4-dichlorobenzyl)-1-methyl-1-{2-[(3,4,5-trimethoxyphenyl)ureido]ethyl}piperidinium iodide]	102 to 108	
